# ChEMBL document CHEMBL2202954, “The effect of PLC-γ2 inhibitors on the growth of human tumour cells” (2012)
# Key:
# Format in all cases: functional
# NCI-H226 = test: Cytotoxicity against human NCI-H226 cells assessed as cellular growth at 10 uM by SRB assay
# NCI-H522 = test: Cytotoxicity against human NCI-H522 cells assessed as cellular growth at 10 uM by SRB assay
# MDA-MB-468 = test: Cytotoxicity against human MDA-MB-468 cells assessed as cellular growth at 10 uM by SRB assay
# LOX IMVI = test: Cytotoxicity against human LOXIMVI cells assessed as cellular growth at 10 uM by SRB assay
# HL-60(TB) = test: Cytotoxicity against human HL-60(TB) cells assessed as cellular growth at 10 uM by SRB assay
# KM12 = test: Cytotoxicity against human KM12 cells assessed as cellular growth at 10 uM by SRB assay
# PC-3 = test: Cytotoxicity against human PC3 cells assessed as cellular growth at 10 uM by SRB assay
# SF-295 = test: Cytotoxicity against human SF295 cells assessed as cellular growth at 10 uM by SRB assay
# TK-10 = test: Cytotoxicity against human TK10 cells assessed as cellular growth at 10 uM by SRB assay
# SK-MEL-2 = test: Cytotoxicity against human SK-MEL-2 cells assessed as cellular growth at 10 uM by SRB assay
# [1] = Cytotoxicity against human NCI-ADR-RES cells assessed as cellular growth at 10 uM by SRB assay
# SW-620 = test: Cytotoxicity against human SW620 cells assessed as cellular growth at 10 uM by SRB assay
# K562 = test: Cytotoxicity against human K562 cells assessed as cellular growth at 10 uM by SRB assay
# HCT-15 = test: Cytotoxicity against human HCT15 cells assessed as cellular growth at 10 uM by SRB assay
# SNB-19 = test: Cytotoxicity against human SNB19 cells assessed as cellular growth at 10 uM by SRB assay
# RXF 393 = test: Cytotoxicity against human RXF393 cells assessed as cellular growth at 10 uM by SRB assay
# NCI-H460 = test: Cytotoxicity against human NCI-H460 cells assessed as cellular growth at 10 uM by SRB assay
# SF-539 = test: Cytotoxicity against human SF539 cells assessed as cellular growth at 10 uM by SRB assay
# 786-0 = test: Cytotoxicity against human 786-0 cells assessed as cellular growth at 10 uM by SRB assay
# CAKI-1 = test: Cytotoxicity against human Caki1 cells assessed as cellular growth at 10 uM by SRB assay
SMILES,Activity (NCI-H226) [%],Activity (NCI-H522) [%],Activity (MDA-MB-468) [%],Activity (LOX IMVI) [%],Activity (HL-60(TB)) [%],Activity (KM12) [%],Activity (PC-3) [%],Activity (SF-295) [%],Activity (TK-10) [%],Activity (SK-MEL-2) [%],Activity [1] [%],Activity (SW-620) [%],Activity (K562) [%],Activity (HCT-15) [%],Activity (SNB-19) [%],Activity (RXF 393) [%],Activity (NCI-H460) [%],Activity (SF-539) [%],Activity (786-0) [%],Activity (CAKI-1) [%]
Clc1ccc(-c2nc(-c3cccs3)no2)cc1,100.24,92.03,3.37,93.13,98.45,92.39,103.14,92.23,109.61,116.4,106.94,105.71,101.77,47.45,103.81,112.7,110.35,92.56,99.58,102.58
Cc1ccc(Cl)cc1NC(=O)c1sc2nc3c(cc2c1N)C(=O)CCC3,88.29,22.92,8.44,68.07,82.22,37.01,55.81,4.01,96.55,64.51,43.81,36.54,33.61,45.91,68.14,42.15,28.15,47.69,89.229,41.45
O=C(Nc1nc2ccc(Cl)cc2s1)c1ccc(Cl)cc1,84.73,99.64,114.39,98.77,100.76,102.62,89.01,87.02,131.87,111.04,100.28,103.76,96.27,98.99,125.32,111.55,98.55,88.34,101.53,81.52
